Patent US9242972B2, “Compounds” (Glaxo Group Limited, priority 2012, dated 2016)

Columns and labels:
[1] = system: IL-17A secreted from antiCD3/CD28 stimulated Peripheral Blood Mononuclear cells (PBMC); experiment: Peripheral Blood Mononucleocyte Cell Assay (PBMC Assay - IL-17); assay type: cell-based; conditions: inhibition of IL-17A release, human PBMC stimulated with CD3/CD28 beads, 48 hours; read-out: mean pIC50 (converted)
Protocol: Peripheral Blood Mononucleocyte Cell Assay (PBMC Assay—IL-17)
This assay is designed to measure levels of IL-17A secreted from antiCD3/CD28 stimulated frozen Peripheral Blood Mononuclear cells (PBMC) isolated from human blood with the aim of identifying inhibitors of IL-17A release.
2. The compounds for screening are dispensed into a master plate at 10 mM top concentration which are serially diluted 1:3 across 11 points in DMSO, then 500 nl is transferred into a 384-well flat-bottomed Greiner plate to which 50 ul of cell suspension is added: for the single shot screening the highest concentration of compound is 10^−5 M; for 11 point full curve dose response studies the highest concentration is 10^−4 M.
As a low control, DMSO (as supplied, for example, by VWR) (final concentration 1%) in column 6 (16 points).
As a high control, 5-(4-fluorophenyl)-2-ureidothiophene-3-carboxamide (obtainable from, for example, Sigma) at a final concentration of 10^−4 M in DMSO should be used in column 18 (16 points).
9. Make the cell suspension at the concentration 8×10^5 cells/mL. to give a final number of 40,000 cells/well.
1. Add well mixed CD3/CD28 Dynabeads (as supplied, for example, by Dynal) to achieve ratio bead:cell=2:1 (i.e a dilution of 1 in 20). Mix thoroughly.
2. Dispense the suspension into the 384 Assay Plates using Multidrop (50 ul per well). If the volume of cell suspension is large, mix the suspension after dispensing into every other plate.
3. Cover the plates with the lids and place them to the humidified incubator (37° C., 5% CO2) for 48 hours.
1. Block cytokine capture Mesoscale Discovery MSD plates with 0.1% Block buffer B (provided by Mesoscale Discovery) in D-PBS solution using 40 ul per well.
1. Transfer 10 ul of supernatants from assay plates to the MSD plates using Cybiwell. Ensure that all wells are covered with the solution. Tap the plate gently, if some of the wells are not covered with the supernatant.
3. Add 10 ul of MSD IL-17 detecting antibody using multidrop (1 ug/mL in D-PBS without Ca^2+ and Mg^2+ (supplied, for example, by Gibco)).
4. Cover the plates with adhesive foil and incubated with shaking for 3 hours at room temperature
7. Add 35 ul of MSD Read Buffer T×2 using multidrop.
8. Read plates on MSD MA6000 reader using the 384 well plate protocol as per manufacturer's instructions.

[2] = molecular target: T1, RORγ ligand binding domain (RORγ-LBD) (Homo sapiens, UniProt P51449); experiment: Dual Fluorescence Energy Transfer (FRET) Assay; assay type: biochemical; conditions: RORγ-LBD / SRC1(2) co-activator peptide interaction, read-out: mean pIC50 (converted)
T1 construct: His6 with thrombin site) (N); made in house; host or cells: E. coli BL21(DE3), modified pET21a vector
T1 sequence (P51449 263-518): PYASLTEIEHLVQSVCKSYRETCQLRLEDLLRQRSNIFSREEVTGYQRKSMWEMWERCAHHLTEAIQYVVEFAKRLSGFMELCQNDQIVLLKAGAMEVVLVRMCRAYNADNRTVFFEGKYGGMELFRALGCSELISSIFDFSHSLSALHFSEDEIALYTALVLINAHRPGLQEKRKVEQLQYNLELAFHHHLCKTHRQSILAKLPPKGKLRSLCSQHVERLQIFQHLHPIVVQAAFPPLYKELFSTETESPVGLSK
Source text: Dual Fluorescence Energy Transfer (FRET) Assay
This assay is based on the knowledge that nuclear receptors interact with cofactors (transcription factors) in a ligand dependent manner. RORγ is a typical nuclear receptor in that it has an AF2 domain in the ligand binding domain (LBD) which interacts with co-activators. The sites of interaction have been mapped to the LXXLL (SEQ ID NO:1) motifs in the co-activator SRC 1(2) sequences. Short peptide sequences containing the LXXLL (SEQ ID NO:1) motif mimic the behavior of full-length co-activator.
This assay measures ligand-mediated interaction of the co-activator peptide with the purified bacterial-expressed RORγ ligand binding domain (RORγ-LBD) to indirectly assess ligand binding. RORγ has a basal level of interaction with the co-activator SRC1(2) in the absence of ligand, Thus, it is possible to find ligands that inhibit or enhance the RORγ/SRC1(2) interaction.
Human RORγ Ligand Binding Domain (RORγ-LBD) was expressed in E. coli strain BL21(DE3) as an amino-terminal polyhistidine tagged fusion protein. DNA encoding this recombinant protein was sub-cloned into a modified pET21a expression vector (Novagen). A modified polyhistidine tag ([…]) (SEQ ID NO:2) was fused in frame to residues 263-518 of the human RORγ sequence.
Approximately 50 g E. coli cell pellet was resuspended in 300 mL of lysis buffer (30 mM imidazole pH 7.0 and 150 mM NaCl). Cells were lysed by sonication and cell debris was removed by centrifugation for 30 minutes at 20,000 g at 4° C. The cleared supernatant was filtered through a 0.45 uM cellulose acetate membrane filter. The clarified lysate was loaded onto a column (XK-26) packed with ProBond Nickel Chelating resin (InVitrogen), pre-equilibrated with 30 mM imidazole pH 7.0 and 150 mM NaCl. After washing to baseline absorbance with the equilibration buffer, the column was developed with a gradient from 30 to 500 mM imidazole pH 7.0. Column fractions containing the RORγ-LBD protein were pooled and concentrated to a volume of 5 mLs. The concentrated protein was loaded onto a Superdex 200 column pre-equilibrated with 20 mM Tris-Cl pH 7.2 and 200 mM NaCl. The fractions containing the desired RORγ-LBD protein were pooled together.
Purified RORγ-LBD was buffer exchanged by exhaustive dialysis [3 changes of at least 20 volumes (8000×)] against PBS [100 mM NaPhosphate, pH 8 and 150 mM NaCl]. The concentration of RORγ-LBD was approximately 30 uM in PBS. Five-fold molar excess of NHS-LC-Biotin (Pierce) was added in a minimal volume of PBS. This solution was incubated with occasional gentle mixing for 60 minutes at ambient room temperature. The modified RORγ-LBD was dialyzed against 2 buffer changes—TBS pH 8.0 containing 5 mM DTT, 2 mM EDTA and 2% sucrose—each at least 20 times of the volume. The modified protein was distributed into aliquots, frozen on dry ice and stored at −80° C. The biotinylated RORγ-LBD was subjected to mass spectrometric analysis to reveal the extent of modification by the biotinylation reagent. In general, approximately 95% of the protein had at least a single site of biotinylation and the overall extent of biotinylation followed a normal distribution of multiple sites ranged from one to five.
A biotinylated peptide corresponding to amino acid 676 to 700 ([…]) (SEQ ID NO:3) of the co-activator steroid receptor coactivator SRC1(2) was generated using similar method.
Biotinylated SRC1(2) solution was prepared by adding an appropriate amount of biotinylated SRC1(2) from the 100 uM stock solution to a buffer containing 10 mM of freshly added DTT from solid to give a final concentration of 40 nM. An appropriate amount of Europium labeled Streptavidin was then added to the biotinylated SRC1(2) solution in a tube to give a final concentration of 10 nM. The tube was inverted gently and incubated for 15 minutes at room temperature. […]

Compound	IC50 [1] [nM]	IC50 [2] [nM]
Cc1cc(C(C)C)cnc1N(CC(C)C)S(=O)(=O)c1ccc(OC[C@H]2CCNC[C@H]2F)cc1 (relative stereo) [Example 35, 4-((cis-3-fluoropiperidin-4-yl)methoxy)-N-isobutyl-N-(5-isopropyl-3-methylpyridin-2-yl)benzenesulfonamide]	1000	
Cc1noc(C)c1COc1ccc(S(=O)(=O)N(CC(C)C)c2ccc(C(C)C)cn2)cc1 [Example 2, 4-((3,5-dimethylisoxazol-4-yl)-methoxy)-N-isobutyl-N-(5-isopropylpyridin-2-yl)benzenesulfonamide]	1000	≤ 31.6
Cc1noc(C)c1COc1ccc(S(=O)(=O)N(CC(C)C)c2nccc(C(F)(F)F)n2)cc1 [Example 14, 4-{[(3,5-dimethyl-4-isoxazolyl)methyl]oxy}-N-(2-methylpropyl)-N-[4-(trifluoromethyl)-2-pyrimidinyl]benzenesulfonamide]		> 10000
Cc1cnc(N(CC(C)C)S(=O)(=O)c2ccc(OCc3c(C)noc3C)cc2)c(C)c1 [Example 15, 4-{[(3,5-dimethyl-4-isoxazolyl)methyl]oxy}-N-(3,5-dimethyl-2-pyridinyl)-N-(2-methylpropyl)benzenesulfonamide]		≤ 31.6
CCc1ccc(C)nc1N(CC(C)C)S(=O)(=O)c1ccc(OCc2c(C)noc2C)cc1 [Example 24, 4-((3,5-dimethylisoxazol-4-yl)methoxy)-N-(3-ethyl-6-methylpyridin-2-yl)-N-isobutylbenzenesulfonamide]	1000	≤ 31.6
Cc1cc(C(C)C)cnc1N(CC(C)C)S(=O)(=O)c1ccc(OCC2CCOCC2)cc1 [Example 31, N-isobutyl-N-(5-isopropyl-3-methylpyridin-2-yl)-4-((tetrahydro-2H-pyran-4-yl)methoxy)benzenesulfonamide]		≤ 31.6
C=C(C)c1cnc(N(CC(C)C)S(=O)(=O)c2ccc(OCC3CCOCC3)cc2)c(C)c1 [Example 32, N-isobutyl-N-(3-methyl-5-(prop-1-en-2-yl)pyridin-2-yl)-4-((tetrahydro-2H-pyranyl)methoxy)benzenesulfonamide]		≤ 31.6
CC(C)CN(c1ccc(C(C)C)cn1)S(=O)(=O)c1ccc(OCC2CCOCC2)cc1 [Example 33, N-isobutyl-N-(5-isopropylpyridin-2-yl)-4-((tetrahydro-2H-pyran-4-yl)methoxy)benzenesulfonamide]		≤ 31.6
Cc1cc(Cl)cnc1N(CC(C)C)S(=O)(=O)c1ccc(OCC2CCOCC2)cc1 [Example 34, N-(5-chloro-3-methylpyridin-2-yl)-N-isobutyl-4-((tetrahydro-2H-pyran-4-yl)methoxy)benzenesulfonamide]		≤ 31.6
CC(C)c1ccc(N(C(C)C(C)C)S(=O)(=O)c2ccc(OCC3CCOCC3)cc2)nc1 (stereo not drawn) [Example 38, N-(5-isopropylpyridin-2-yl)-N-(3-methylbutan-2-yl)-4-((tetrahydro-2H-pyran-4-yl)methoxy)benzenesulfonamide]	1000	≤ 31.6
Cc1noc(C)c1COc1ccc(S(=O)(=O)N(CC2CCC2)c2ccc(C(C)C)cn2)cc1 [Example 47, N-(cyclobutylmethyl)-4-((3,5-dimethylisoxazol-4-yl)methoxy)-N-(5-isopropylpyridin-2-yl)benzenesulfonamide]		≤ 31.6
CCC(C)CN(c1ccc(C(C)C)cn1)S(=O)(=O)c1ccc(OCc2c(C)noc2C)cc1 (stereo not drawn) [Example 49, 4-((3,5-dimethylisoxazol-4-yl)methoxy)-N-(5-isopropylpyridin-2-yl)-N-(2-methylbutyl)benzenesulfonamide]		≤ 31.6
